Among the data in ChEMBL document CHEMBL5303710, “ECBD screening data for assay EOS300044” (2022) are IC50 relative values, retold here.

In the test the target is Replicase polyprotein 1ab (Severe acute respiratory syndrome coronavirus 2) (UniProt P0DTD1). The test is described as follows: Inhibition of SARS-CoV-2 3CL-Pro proteolytic cleavage of a dual-labeled substrate by FRET at 1mM DTT. The class given is functional. Set-up: assay stage.

As for `O=C(CC1Sc2ncnn2C1=O)Nc1ccc(Br)cc1` (centres undefined), the IC50 relative was over 20 µM. The value for `Cc1ccc(S(=O)(=O)N[C@@H](Cc2ccccc2)C(=O)CCl)cc1` was 0.839 µM; that for `Sc1nnc(Nc2ccccc2)s1` was over 20 µM; that for `Cc1ccc(C)c(-n2sc3cc(F)ccc3c2=O)c1` was under 0.02 µM.

On to `CN1CCN(C(=O)c2ccc(-c3ccc4c(C=O)c(O)ccc4c3)s2)CC1`, for which the IC50 relative was 5.65 µM. In the case of `CCOc1cc(C(Nc2cc(C)ccn2)c2ccc3cccnc3c2O)ccc1OC` (centres undefined) it was over 20 µM; in that of `Sc1nnc(-c2ccccc2Cl)o1`, 7.71 µM. In the case of `CCN(CC)S(=O)(=O)c1cccc(-n2sc3ccccc3c2=O)c1` it was under 0.02 µM; in that of `Oc1cc2c(cc1C(c1ccc(C(F)(F)F)cc1)N1CCOCC1)OCO2` (centres undefined), over 20 µM; in that of `O=c1cc(-c2ccccc2)oc2cc(O)c(O)c(O)c12`, over 20 µM. The value for `S=C=Nc1cccc(NC(=S)NCCCCNC(=S)Nc2cccc(N=C=S)c2)c1` was over 20 µM.

`O=[N+]([O-])c1ccc(Sc2cccc[n+]2[O-])c2nonc12`: the IC50 relative was 0.53 µM.

Consider `CCN(CC)C(=S)S`, for which the IC50 relative is over 20 µM. Regarding `O=C(c1ccc(Cl)cc1)c1cc([N+](=O)[O-])ccc1N1CCOCC1`, the IC50 relative is over 20 µM.

Consider `COc1ccc2[nH]c([S+]([O-])Cc3ncc(C)c(OC)c3C)nc2c1` (centres undefined), for which the IC50 relative is over 20 µM.

Consider `COc1ccc2[nH]c(S)nc2c1`, for which the IC50 relative is over 20 µM. `O=C(c1cccs1)c1no[n+]([O-])c1C(=O)c1cccs1`: the IC50 relative is over 20 µM. In the case of `O=C1C(Cl)=C(N2CCOCC2)C(=O)N1c1ccc(Cl)c(Cl)c1` it was over 20 µM; in that of `Oc1cc2c(cc1O)C(c1ccccc1)CNCC2` (centres undefined), over 20 µM.

For the molecule `NC(Cc1cc(O)c(O)cc1O)C(=O)O` (racemic), the IC50 relative is over 20 µM. In the case of `Cc1ccc(-n2sc(=O)n(Cc3ccc(F)cc3)c2=O)cc1` it was 0.148 µM. The value for `O=C1C(Cl)=C(Cl)C(=O)C(Cl)=C1Cl` was 0.183 µM; that for `S=C=NCc1ccccc1` was over 20 µM.

Regarding `O=C(/C=C/c1ccc2ccccc2n1)c1ccncc1`, the IC50 relative is 0.191 µM.

`O=C(O)[C@@H](S)[C@@H](S)C(=O)O`: the IC50 relative was 0.0836 µM.

With `CCOC(=O)c1c(N)sc(-c2ccccc2)c1C`, the IC50 relative was 3.61 µM. For `COc1ccnc(C[S+]([O-])c2nc3cc(OC(F)F)ccc3[nH]2)c1OC` (centres undefined), the IC50 relative was over 20 µM. The value for `CN(C)S(=O)(=O)c1cccc(-n2sc3ccccc3c2=O)c1` was under 0.02 µM; that for `Cc1c(-c2ccc(N3CCc4cccc(C(=O)Nc5nc6ccccc6s5)c4C3)nc2C(=O)O)cnn1CC12CC3CC(CC(C3)C1)C2` was over 20 µM. `CC(Cc1ccc(O)c(O)c1)C(C)Cc1ccc(O)c(O)c1` (centres undefined): the IC50 relative was over 20 µM. In the case of `O=C(Nc1ccccc1)Nc1ccc(-c2ccc(C(=O)[C@@H]3CCC[C@H]3C(=O)O)cc2)cc1` it was over 20 µM; in that of `Cc1cc(-c2ccc(/N=N/c3ccc4c(S(=O)(=O)O)cc(S(=O)(=O)O)c(N)c4c3O)c(C)c2)ccc1/N=N/c1ccc2c(S(=O)(=O)O)cc(S(=O)(=O)O)c(N)c2c1O`, 0.0219 µM. The value for `Sc1nnnn1-c1ccccc1` was over 20 µM; that for `O=c1c(O)cccc2cc(O)c(O)c(O)c12` was over 20 µM; that for `Cc1ccc(-n2sc3ccccc3c2=O)cc1` was under 0.02 µM. In the case of `COC(=O)CC[C@H](NC(=O)[C@H](CC(=O)OC)NC(=O)OCc1ccccc1)C(=O)N[C@H](C(=O)N[C@@H](CC(=O)OC)C(=O)CF)C(C)C` it was under 0.02 µM; in that of `Cn1sc(=O)n(Cc2ccccc2)c1=O`, under 0.02 µM.

As to `Cc1c(OCC(F)(F)F)ccnc1C[S+]([O-])c1nc2ccccc2[nH]1` (centres undefined), the IC50 relative was over 20 µM. With `O=C(CCl)c1ccccc1`, the IC50 relative is 0.246 µM. In the case of `CCCCn1c(NC(=O)c2cccs2)c(C#N)c2nc3ccccc3nc21` it was over 20 µM; in that of `c1ccc2sc(SSc3nc4ccccc4s3)nc2c1`, 0.537 µM. The value for `CC(C)(C)OC(=O)NCCc1nnc(S(=O)(=O)Cc2ccc(Cl)cc2Cl)o1` was 7.29 µM; that for `CC1=CC(=O)c2ccccc2C1=O` was over 20 µM. The value for `COc1ncc(-c2ccc3nccc(-c4ccnnc4)c3c2)cc1NS(=O)(=O)c1ccc(F)cc1F` was over 20 µM; that for `Cc1cc(C)cc(N2C(=O)CC(Sc3nc[nH]n3)C2=O)c1` (centres undefined) was over 20 µM.

Consider `O=c1c2ccccc2sn1-c1ccccc1`, for which the IC50 relative was under 0.02 µM. The value for `COc1ccc2[nH]c3c(S)ncnc3c2c1` was over 20 µM. In the case of `CCN1CCN(C(c2ccc(C(F)(F)F)cc2)c2ccc3cccnc3c2O)CC1` (centres undefined) it was 1.34 µM.

Regarding `O=C(O)c1c(Cl)c(Cl)c(Cl)c(Cl)c1-c1c2cc(I)c(=O)c(I)c-2oc2c(I)c(O)c(I)cc12`, the IC50 relative is over 20 µM. In the case of `Nc1nc(S)c2ncn(C3OC(CO)C(O)C3O)c2n1` (centres undefined) it was 1.45 µM. Consider `Cc1cc(-c2ccc(/C=C3/S/C(=N\c4ccc(Cl)c(C(=O)O)c4)NC3=O)o2)c([N+](=O)[O-])cc1C`, for which the IC50 relative was over 20 µM. In the case of `O=C(NC(=S)N1CCCc2ccccc21)c1ccccc1` it was over 20 µM; in that of `COc1cc(N(C)C)cc(CN(C)CCc2ccc([N+](=O)[O-])cc2)c1O`, over 20 µM.

Take `Nc1ccc(O)c2ncccc12`: the IC50 relative was over 20 µM.
